Legend:
[1] = tested on: Puccinia recondita f. sp. tritici; assay: Puccinia recondita f. sp. tritici / wheat / leaf disc preventative (brown rust); format: in vivo; details: foliar, wheat leaf segments cv. Kanzler, inoculated 1 day after application, compared to untreated control
Protocol: Example B8. Puccinia recondita f. Sp. tritici/Wheat/Leaf Disc Preventative (Brown Rust) Wheat leaf segments cv. Kanzler are placed on agar in multiwell plates (24-well format) and sprayed with the formulated test compound diluted in water. The leaf disks are inoculated with a spore suspension of the fungus 1 day after application. The inoculated leaf segments are incubated at 19° C. and 75% rh under a light regime of 12 h light/12 h darkness in a climate cabinet and the activity of a compound is assessed as percent disease control compared to untreated when an appropriate level of disease damage appears in untreated check leaf segments (7-9 days after application). […] […]-25, and P-26.

[2] = tested on: Mycosphaerella arachidis (Cercospora arachidicola); assay: Mycosphaerella arachidis (Cercospora arachidicola) / liquid culture (early leaf spot); format: cell-based; details: liquid culture (PDB), growth inhibition photometrically 4-5 days after application, compared to untreated control
Protocol: Example B7. Mycosphaerella arachidis (Cercospora arachidicola)/Liquid Culture (Early Leaf Spot) Conidia of the fungus from cryogenic storage are directly mixed into nutrient broth (PDB potato dextrose broth). After placing a (DMSO) solution of test compound into a microtiter plate (96-well format), the nutrient broth containing the fungal spores is added. The test plates are incubated at 24° C. and the inhibition of growth is determined photometrically 4-5 days after application. […] […]-22, and P-25.

[3] = tested on: Mycosphaerella graminicola (Septoria tritici); assay: Mycosphaerella graminicola (Septoria tritici) / liquid culture (Septoria blotch); format: cell-based; details: Zymoseptoria tritici, liquid culture (PDB), growth inhibition photometrically 4-5 days after application, compared to untreated control
Protocol: (§1) Example B11. Mycosphaerella graminicola (Septoria tritici)/Liquid Culture (Septoria Blotch) Conidia of the fungus from cryogenic storage are directly mixed into nutrient broth (PDB potato dextrose broth). After placing a (DMSO) solution of test compound into a microtiter plate (96-well format), the nutrient broth containing the fungal spores is added. The test plates are incubated at 24° C. and the inhibition of growth is determined photometrically 4-5 days after application.

[4] = tested on: Monographella nivalis (Microdochium nivale); assay: Monographella nivalis (Microdochium nivale) / liquid culture (foot rot cereals); format: cell-based; details: liquid culture (PDB), growth inhibition photometrically 4-5 days after application, compared to untreated control
Protocol: as §1, with “B6. Monographella nivalis (Microdochium nivale)/Liquid” for “B11. Mycosphaerella graminicola (Septoria tritici)/Liquid”, “(Foot Rot Cereals)” for “(Septoria Blotch)”, “application. […] […]-25, and P-26.” for “application.”

[5] = tested on: Glomerella lagenarium (Colletotrichum lagenarium); assay: Glomerella lagenarium (Colletotrichum lagenarium) / liquid culture (anthracnose); format: cell-based; details: Colletotrichum orbiculare, liquid culture (PDB), growth inhibition photometrically 3-4 days after application, compared to untreated control
Protocol: as §1, with “B3. Glomerella lagenarium (Colletotrichum lagenarium)/Liquid” for “B11. Mycosphaerella graminicola (Septoria tritici)/Liquid”, “(Anthracnose)” for “(Septoria Blotch)”, “measured” for “determined”, “3-4” for “4-5”, “application. […] […]-25, and P-26.” for “application.”

Alternaria solani = Alternaria solani / tomato / leaf disc (early blight); format: in vivo; details: foliar, tomato leaf disks cv. Baby, inoculated 2 days after application, compared to untreated control
Protocol: Example B1. Alternaria solani/Tomato/Leaf Disc (Early Blight) Tomato leaf disks cv. Baby are placed on agar in multiwell plates (24-well format) and sprayed with the formulated test compound diluted in water. The leaf disks are inoculated with a spore suspension of the fungus 2 days after application. The inoculated leaf disks are incubated at 23° C./21° C. […] […]-24, and P-25.

Pyrenophora teres = Pyrenophora teres / barley / leaf disc preventative (net blotch); format: in vivo; details: foliar, barley leaf segments cv. Hasso, inoculated 2 days after application, compared to untreated control
Protocol: Example B10. Pyrenophora teres/Barley/Leaf Disc Preventative (Net Blotch) Barley leaf segments cv. Hasso are placed on agar in a multiwell plate (24-well format) and sprayed with the formulated test compound diluted in water. The leaf segments are inoculated with a spore suspension of the fungus 2 days after application. The inoculated leaf segments are incubated at 20° C. and 65% rh under a light regime of 12 h light/12 h darkness in a climate cabinet and the activity of a compound is assessed as disease control compared to untreated when an appropriate level of disease damage appears in untreated check leaf segments (5-7 days after application). […] […]-25, and P-26.

[6] = tested on: Magnaporthe grisea (Pyricularia oryzae); assay: whole plant or invertebrate; format: in vivo; details: foliar, read-out: control of Magnaporthe grisea

CC1(C)CCC1NC(=O)c1nc(Nc2cc(F)cc(F)c2)cc2c1OCO2 (centres unmarked) [Compound P-11, 6-(3,5-difluoroanilino)-N-(2,2-dimethylcyclobutyl)-[1,3]dioxolo[4,5-c]pyridine-4-carboxamide]
≥ 80%: pest or weed control at 200 ppm [1] | inhibition of growth at 20 ppm [2] | inhibition of growth at 20 ppm [3] | inhibition of growth at 20 ppm [4] | inhibition of growth at 20 ppm [5]

CC1(NC(=O)c2nc(Nc3cc(F)cc(F)c3)cc3c2OCO3)CCOC1 (centres unmarked) [Compound P-23, 6-(3,5-difluoroanilino)-N-(3-methyltetrahydrofuran-3-yl)-[1,3]dioxolo[4,5-c]pyridine-4-carboxamide]
≥ 80%: inhibition of growth at 20 ppm [3] | pest or weed control at 200 ppm (Alternaria solani) | inhibition of growth at 20 ppm [4] | pest or weed control at 200 ppm (Pyrenophora teres) | inhibition of growth at 20 ppm [5]

CC1(NC(=O)c2nc(Nc3cc(F)cc(F)c3)cc3c2OCO3)COC1 [Compound P-24, 6-(3,5-difluoroanilino)-N-(3-methyloxetan-3-yl)-[1,3]dioxolo[4,5-c]pyridine-4-carboxamide]
≥ 80%: pest or weed control at 200 ppm [6] | inhibition of growth at 20 ppm [3] | pest or weed control at 200 ppm (Alternaria solani) | inhibition of growth at 20 ppm [4] | inhibition of growth at 20 ppm [5]

CC1Oc2cc(Nc3cc(F)cc(F)c3)nc(C(=O)NCC(C)(C)C)c2O1 (centres unmarked) [Compound P-3, 6-(3,5-difluoroanilino)-N-(2,2-dimethylpropyl)-2-methyl-[1,3]dioxolo[4,5-c]pyridine-4-carboxamide]
≥ 80%: inhibition of growth at 20 ppm [5]

CC1Oc2cc(Nc3cccc(F)c3)nc(C(=O)NCC(C)(C)C)c2O1 (centres unmarked) [Compound P-2, N-(2,2-dimethylpropyl)-6-(3-fluoroanilino)-2-methyl-[1,3]dioxolo[4,5-c]pyridine-4-carboxamide]
≥ 80%: inhibition of growth at 20 ppm [3] | inhibition of growth at 20 ppm [5]

CC1Oc2cc(Nc3ccccc3)nc(C(=O)NCC(C)(C)C)c2O1 (centres unmarked) [Compound P-1, 6-anilino-N-(2,2-dimethylpropyl)-2-methyl-[1,3]dioxolo[4,5-c]pyridine-4-carboxamide]
≥ 80%: inhibition of growth at 20 ppm [5]

CC(C)(C)CNC(=O)c1nc(Nc2cncc(F)c2)cc2c1OCO2 [Compound P-14, N-(2,2-dimethylpropyl)-6-[(5-fluoro-3-pyridyl)amino]-[1,3]dioxolo[4,5-c]pyridine-4-carboxamide]
≥ 80%: pest or weed control at 200 ppm [6] | inhibition of growth at 20 ppm [3] | inhibition of growth at 20 ppm [4] | inhibition of growth at 20 ppm [5]

CC1(C)CCC1NC(=O)c1nc(N(C#N)c2cc(F)cc(F)c2)cc2c1OCO2 (centres unmarked) [Compound P-7, 6-(N-cyano-3,5-difluoro-anilino)-N-(2,2-dimethylcyclobutyl)-[1,3]dioxolo[4,5-c]pyridine-4-carboxamide]
≥ 80%: inhibition of growth at 20 ppm [3] | inhibition of growth at 20 ppm [4] | inhibition of growth at 20 ppm [5]

CC(C)CCNC(=O)c1nc(Nc2cc(F)nc(F)c2)cc2c1OCO2 [Compound P-12, 6-[(2,6-difluoro-4-pyridyl)amino]-N-isopentyl-[1,3]dioxolo[4,5-c]pyridine-4-carboxamide]
≥ 80%: pest or weed control at 200 ppm [1] | inhibition of growth at 20 ppm [3] | inhibition of growth at 20 ppm [4]

CC(C)(C)CNC(=O)c1nc(Nc2cccc(F)c2)cc2c1OCO2 [Compound P-15, N-(2,2-dimethylpropyl)-6-(3-fluoroanilino)-[1,3]dioxolo[4,5-c]pyridine-4-carboxamide]
≥ 80%: inhibition of growth at 20 ppm [2] | pest or weed control at 200 ppm [6] | inhibition of growth at 20 ppm [3] | inhibition of growth at 20 ppm [4] | pest or weed control at 200 ppm (Pyrenophora teres) | inhibition of growth at 20 ppm [5]

CC(C)(C)CC(C)(C)NC(=O)c1nc(Nc2cc(F)cc(F)c2)cc2c1OCO2 [Compound P-17, 6-(3,5-difluoroanilino)-N-(1,1,3,3-tetramethylbutyl)-[1,3]dioxolo[4,5-c]pyridine-4-carboxamide]
≥ 80%: pest or weed control at 200 ppm [6] | inhibition of growth at 20 ppm [3] | inhibition of growth at 20 ppm [4]

CC1(C)CCC1NC(=O)c1nc(Nc2cc(F)cc(F)c2)cc2c1OC(F)(F)O2 (centres unmarked) [Compound P-6, 6-(3,5-difluoroanilino)-N-(2,2-dimethylcyclobutyl)-2,2-difluoro-[1,3]dioxolo[4,5-c]pyridine-4-carboxamide]
≥ 80%: inhibition of growth at 20 ppm [4] | inhibition of growth at 20 ppm [5]

CC1(NC(=O)c2nc(Nc3cc(F)cc(F)c3)cc3c2OCO3)CSC1 [Compound P-19, 6-(3,5-difluoroanilino)-N-(3-methylthietan-3-yl)-[1,3]dioxolo[4,5-c]pyridine-4-carboxamide]
≥ 80%: inhibition of growth at 20 ppm [2] | pest or weed control at 200 ppm [6] | inhibition of growth at 20 ppm [3] | pest or weed control at 200 ppm (Alternaria solani) | inhibition of growth at 20 ppm [4] | pest or weed control at 200 ppm (Pyrenophora teres) | inhibition of growth at 20 ppm [5]

CCC(C)(C)NC(=O)c1nc(Nc2cc(F)cc(F)c2)cc2c1OCO2 [Compound P-18, 6-(3,5-difluoroanilino)-N-(1,1-dimethylpropyl)-[1,3]dioxolo[4,5-c]pyridine-4-carboxamide]
≥ 80%: pest or weed control at 200 ppm [1] | inhibition of growth at 20 ppm [2] | pest or weed control at 200 ppm [6] | inhibition of growth at 20 ppm [3] | inhibition of growth at 20 ppm [4] | pest or weed control at 200 ppm (Pyrenophora teres) | inhibition of growth at 20 ppm [5]

CC1(NC(=O)c2nc(Nc3cc(F)cc(F)c3)cc3c2OCO3)CCCCC1 [Compound P-26, 6-(3,5-difluoroanilino)-N-(1-methylcyclohexyl)-[1,3]dioxolo[4,5-c]pyridine-4-carboxamide]
≥ 80%: pest or weed control at 200 ppm [1] | pest or weed control at 200 ppm [6] | inhibition of growth at 20 ppm [3] | inhibition of growth at 20 ppm [4] | pest or weed control at 200 ppm (Pyrenophora teres) | inhibition of growth at 20 ppm [5]

CC(C)(C)CNC(=O)c1nc(Nc2cc(F)cc(F)c2)cc2c1OCO2 [Compound P-5, 6-(3,5-difluoroanilino)-N-(2,2-dimethylpropyl)-[1,3]dioxolo[4,5-c]pyridine-4-carboxamide]
≥ 80%: pest or weed control at 200 ppm [6] | inhibition of growth at 20 ppm [3] | inhibition of growth at 20 ppm [4] | pest or weed control at 200 ppm (Pyrenophora teres) | inhibition of growth at 20 ppm [5]

CC1(C)CCC1NC(=O)c1nc(Nc2ccccc2)cc2c1OCO2 (centres unmarked) [Compound P-9, 6-anilino-N-(2,2-dimethylcyclobutyl)-[1,3]dioxolo[4,5-c]pyridine-4-carboxamide]
≥ 80%: inhibition of growth at 20 ppm [2] | inhibition of growth at 20 ppm [3] | pest or weed control at 200 ppm (Alternaria solani) | inhibition of growth at 20 ppm [4] | pest or weed control at 200 ppm (Pyrenophora teres) | inhibition of growth at 20 ppm [5]

CC1(C)CCC1NC(=O)c1nc(Nc2cc(F)nc(F)c2)cc2c1OCO2 (centres unmarked) [Compound P-10, 6-[(2,6-difluoro-4-pyridyl)amino]-N-(2,2-dimethylcyclobutyl)-[1,3]dioxolo[4,5-c]pyridine-4-carboxamide]
≥ 80%: inhibition of growth at 20 ppm [3] | inhibition of growth at 20 ppm [4] | inhibition of growth at 20 ppm [5]

CC(C)(NC(=O)c1nc(Nc2cc(F)cc(F)c2)cc2c1OCO2)c1ccccc1 [Compound P-20, 6-(3,5-difluoroanilino)-N-(1-methyl-1-phenyl-ethyl)-[1,3]dioxolo[4,5-c]pyridine-4-carboxamide]
≥ 80%: inhibition of growth at 20 ppm [3] | inhibition of growth at 20 ppm [4] | inhibition of growth at 20 ppm [5]

Reference: US12497406B2, “Microbiocidal derivatives” (SYNGENTA CROP PROTECTION AG, priority 2019, dated 2025)
